Measurements taken from PMC6176729 (Journal of medicinal chemistry, 2018).

What was measured:
Assay type in all cases: in vitro ADME
[1] = Microsomal stability assay, human liver microsomes; details: for CLINT human: human liver microsomes 0.5 mg/mL, 1 μM compound; for CLHEP human: predicted hepatic clearance, human microsomes
[2] = Microsomal stability assay, rat liver microsomes; details: for CLHEP rat: predicted hepatic clearance, rat microsomes; for CLINT rat: rat liver microsomes 0.5 mg/mL, 1 μM compound
[3] = Microsomal stability assay, mouse liver microsomes
[4] = mouse liver microsomes 0.5 mg/mL, 1 μM compound
[5] = predicted hepatic clearance, mouse microsomes
[6] = male, CD-1, mouse, 1 μM, pH 7.4

| Structure (SMILES) | CLINT human [1] [mL/min/kg body weight] | CLHEP human [1] [mL/min/kg body weight] | CLHEP rat [2] [mL/min/kg body weight] | CLINT rat [2] [mL/min/kg body weight] | CLINT mouse [3, 4] [mL/min/kg body weight] | CLHEP mouse [3, 5] [mL/min/kg body weight] | CLHEP mouse [3, 6] [mL/min/kg body weight] | CLINT mouse ([3]; mouse, microsomes) [mL/min/kg body weight] |
| --- | --- | --- | --- | --- | --- | --- | --- | --- |
| O=C(N[C@@H](Cn1ccnc1)c1ccc(Cl)cc1Cl)c1ccc(-c2nnc(-c3cccc(Br)c3)o2)cc1 [Compound 6, (R)-4-(5-(3-Bromophenyl)-1,3,4-oxadiazol-2-yl)-N-(1-(2,4-di-chlorophenyl)-2-(1H-imidazol-1-yl)ethyl)benzamide] | 9.47 | 6.53 | 19 | 27 | 126 | 55 |  |  |
| O=C(N[C@@H](Cn1ccnc1)c1ccc(Cl)cc1Cl)c1ccc(-c2nnc(-c3ccc(F)c(F)c3)o2)cc1 [Compound 1, (R)-N-(1-(2,4-Dichlorophenyl)-2-(1H-imidazol-1-yl)ethyl)-4-(5-(3,4-difluorophenyl)-1,3,4-oxadiazol-2-yl)benzamide] | 7.53 | 5.54 | 21 | 31 | 55 | 34 |  |  |
| O=C(N[C@@H](Cn1ccnc1)c1ccc(Cl)cc1Cl)c1ccc(-c2nnc(-c3ccc(OCC(F)(F)F)cc3F)o2)cc1 [Compound 3, (R)-N-(1-(2,4-Dichlorophenyl)-2-(1H-imidazol-1-yl)ethyl)-4-(5-(2-fluoro-4-(2,2,2-trifluoroethoxy)phenyl)-1,3,4-oxadiazol-2-yl)-benzamide] | 16.5 | 9.24 | 34 | 64 | 88 | 44 |  |  |
| O=C(N[C@@H](Cn1ccnc1)c1ccc(Cl)cc1Cl)c1ccc(-c2nnc(-c3cc(F)cc(-c4ccccn4)c3)o2)cc1 [Compound 11, (R)-N-(1-(2,4-Dichlorophenyl)-2-(1H-imidazol-1-yl)ethyl)-4-(5-(3-fluoro-5-(pyridin-2-yl)phenyl)-1,3,4-oxadiazol-2-yl)benzamide] | 96.6 | 17.3 | 24.0 | 36.0 | 55.0 | 34 |  |  |
| O=C(N[C@@H](Cn1ccnc1)c1ccc(Cl)cc1Cl)c1ccc(-c2nnc(-c3ccc(C(F)(F)F)c(F)c3)o2)cc1 [Compound 2, (R)-N-(1-(2,4-Dichlorophenyl)-2-(1H-imidazol-1-yl)ethyl)-4-(5-(3-fluoro-4-(trifluoromethyl)phenyl)-1,3,4-oxadiazol-2-yl)benzamide] | 6.06 | 4.07 | 24 | 36 | 60 | 36 |  |  |
| O=C(N[C@@H](Cn1ccnc1)c1ccc(Cl)cc1Cl)c1ccc(-c2nnc(-c3cc(F)cc(OCC(F)(F)F)c3)o2)cc1 [Compound 4, (R)-N-(1-(2,4-Dichlorophenyl)-2-(1H-imidazol-1-yl)ethyl)-4-(5-(3-fluoro-5-(2,2,2-trifluoroethoxy)phenyl)-1,3,4-oxadiazol-2-yl)-benzamide] | 11.3 | 7.33 | 29 | 50.4 |  |  | 43.6 | 84.7 |
| CS(=O)(=O)c1ccc(-c2nnc(-c3ccc(C(=O)N[C@@H](Cn4ccnc4)c4ccc(Cl)cc4Cl)cc3)o2)cc1Cl [Compound 14, (R)-4-(5-(3-Chloro-4-(methylsulfonyl)phenyl)-1,3,4-oxadiazol-2-yl)-N-(1-(2,4-dichlorophenyl)-2-(1H-imidazol-1-yl)ethyl)benzamide] | 9.31 | 6.45 | 42 | 104 |  |  | 34.5 | 56 |
| O=C(N[C@@H](Cn1ccnc1)c1ccc(Cl)cc1Cl)c1ccc(-c2nnc(-c3ccc(Cl)c(Cl)c3)o2)cc1 [Compound 5, (R)-4-(5-(3,4-Dichlorophenyl)-1,3,4-oxadiazol-2-yl)-N-(1-(2,4-di-chlorophenyl)-2-(1H-imidazol-1-yl)ethyl)benzamide] | 11.4 | 7.39 | 35 | 70 |  |  | 49 | 107 |
| O=C(N[C@@H](Cn1ccnc1)c1ccc(Cl)cc1Cl)c1ccc(-c2nnc(-c3ccccc3)o2)cc1 [VNI, (R)-N-(1-(2,4-dichlorophenyl)-2-(1H−imidazol-1-yl)ethyl)-4-(5-phenyl-1,3,4-oxadiazol-2-yl)-benzamide, reference compound] | 8.31 | 5.95 | 19.2 | 26.4 | 87 | 44 |  |  |
| O=C(N[C@@H](Cn1ccnc1)c1ccc(Cl)cc1Cl)c1ccc(-c2nnc(-c3ccc(-c4ccccn4)cc3)o2)cc1 [Compound 10, (R)-N-(1-(2,4-Dichlorophenyl)-2-(1H-imidazol-1-yl)ethyl)-4-(5-(4-(pyridin-2-yl)phenyl)-1,3,4-oxadiazol-2-yl)benzamide] | 10.8 | 7.15 | 40 | 94 | 95 | 46 |  |  |
| O=C(N[C@@H](Cn1ccnc1)c1ccc(Cl)cc1Cl)c1ccc(-c2nnc(-c3cc(-c4ccccn4)ccc3F)o2)cc1 [Compound 13, (R)-N-(l-(2,4-Dichlorophenyl)-2-(TH-imidazol-l-yl)ethyl)-4-(5-(2-fluoro-5-(pyridin-2-yl)phenyl)-1,3,4-oxadiazol-2-yl)benzamide] | 10.2 | 6.85 | 29.0 | 49.4 | 238 | 65 |  |  |
| O=C(N[C@@H](Cn1ccnc1)c1ccc(Cl)cc1Cl)c1ccc(-c2nnc(-c3cc(F)cc(-c4ncncc4F)c3)o2)cc1 [Compound 15, (R)-N-(1-(2,4-Dichlorophenyl)-2-(1H-imidazol-1-yl)ethyl)-4-(5-(3-fluoro-5-(5-fluoropyrimidin-4-yl)phenyl)-1,3,4-oxadiazol-2-yl)-benzamide] | 14.9 | 8.37 | 19.5 | 27.0 | 104 | 48.3 |  |  |
| O=C(N[C@@H](Cn1ccnc1)c1ccc(Cl)cc1Cl)c1ccc(-c2nnc(-c3ccc(-c4ccccn4)cc3F)o2)cc1 [Compound 12, (R)-N-(1-(2/4-Dichlorophenyl)-2-(1H-imidazol-1-yl)ethyl)-4-(5-(4-(3-fluoropyridin-2-yl)phenyl)-1,3,4-oxadiazol-2-yl)benzamide] | 15 | 8.75 | 29.7 | 51.6 | 36.5 | 26.0 |  |  |
| O=C(N[C@@H](Cn1ccnc1)c1ccc(Cl)cc1Cl)c1ccc(-c2nnc(-c3cccc(-c4ccccn4)c3)o2)cc1 [Compound 9, (R)-N-(1-(2,4-Dichlorophenyl)-2-(1H-imidazol-1-yl)ethyl)-4-(5-(3-(pyridin-2-yl)phenyl)-1,3,4-oxadiazol-2-yl)benzamide] | 13.1 | 8.06 | 35 | 68 |  |  | 56 | 152 |
